Experimental data: patent US5922319A, “Methods of treating eye conditions with human leukocyte elastase (HLE) inhibitory agents” (University of Kentucky Research Foundation, priority 1989, dated 1999)

Tested on: rabbit corneas thermally burned (corneal scarring, fibroblast proliferation, neovascularization)
Assay: Thermal corneal burn in rabbit eyes, topical eye drops for two weeks, blind histopathology (H&E)
Assay type: in vivo
Experimental: 26 rabbits were tranquilized with acetylpromazine maleate, 16 mg/kg intramuscularly. 2% lidocaine HCl eye drops were instilled in each eye for corneal anesthesia. Once the corneas were anesthetized, an eyelid speculum was inserted and the lids were then separated. The corneas of each eye were thermally coagulated with the tip of a battery-powered ophthalmic cautery. […] Two drops of solution A, B or C were instilled in designated treated eyes every 15 min for 6 hrs., then every 2 hrs. for 12 hrs. Following this, two eye drops of the same solutions were instilled four times a day. Daily eye examination was performed and photographs were taken. Two weeks after treatment the rabbits were sacrificed by […] intracardiac injection of T-61 ([…]). Subsequently, the rabbits, eyeballs were enucleated, the globes placed in Bounri's solution (10% formalin solution) and submitted for histopathology cell analysis. The eyes were fixed with 10% formalin solution and labeled right (R) and left (L), as appropriate sectioned and stained with H & E (hematoxylin & eosin stains). Histological sections were read by a pathologist without knowledge of the previously undertaken experimental procedure (blind test).

Q: `COC(=O)CCC(=O)N[C@@H](C)C(=O)N[C@@H](CCCCNC(=O)OCc1ccccc1)C(=O)N1CCC[C@H]1C(=O)CN(C(=O)Sc1nnnn1-c1ccccc1)C(C)C` [Compound 2, S-(1-phenyl-5-tetrazoyl)-N-[methoxysuccinyl-alanyl-(Nε -Carbobenzoxy)lysylprolylmethyl]-N-isopropyl-thiocarbamate] was tested. Which “Microscopic description of rabbit eyes: intensity of the reaction compared with the untreated specimen” value (Solution B, 10 μg/ml in normal saline with 1.4% w/v polyvinyl alcohol, eye drops, two weeks after corneal burn) did it give?
A: The value was “The reaction is not quite as intense”.

Q: What about the “Protection against scarring due to corneal burns (magnitude)” value (Solution C, 50 μg/ml, versus untreated eyes) of the same compound?
A: The value was “tenfold”.

Q: What about the “Overall effect of ophthalmic solutions on fibrosis, neovascularization and inflammation in corneal wound-healing” value (ophthalmic solutions B or C, rabbit corneal burn) of the same compound?
A: Its value is “effective in reducing fibrosis, neovascularization and inflammation”.
